The values below come from ChEMBL document CHEMBL5665440, “ASAP - In vitro liver microsomal stability” (2024).

Data set [1] can be described thus: Human liver microsomal stability of compound in microsomal protein, PBS buffer pH 7.4, NADPH, glucose-6-phosphate and glucose-6-phosphate dehydrogenase media. Aliquotes were taken at 5 time points and after stopping the reaction, supernatants were analyzed using HPLC coupled with a tandem mass spectrometer. The elimination constant, half-life, and intrinsic clearance are determined as results using linear regression analysis. Type of data set: ADME, microsomes, Microsome. As to conditions: for half-life / microsomal CLint: liver microsomes. A general note: Microsomes from liver hold many membrane-bound enzymes, among them those of drug oxidation.

Data set [2] can be described thus: Mouse liver microsomal stability of compound in microsomal protein, PBS buffer pH 7.4, NADPH, glucose-6-phosphate and glucose-6-phosphate dehydrogenase media. Aliquotes were taken at 5 time points and after stopping the reaction, supernatants were analyzed using HPLC coupled with a tandem mass spectrometer. The elimination constant, half-life, and intrinsic clearance are determined as results using linear regression analysis. The data set is classed as ADME, microsomes, Microsome. As to conditions: for half-life / microsomal CLint: liver microsomes; for Remaining / Remaining (without cofactor): microsomes.

A value given as a limit tells only on which side of the number the result lay.
For Remaining (without cofactor) in this document: time not given here.
For Remaining in this document: time not given here.

`Clc1ccc2[nH]cc(Cc3ccc(-c4nn[nH]n4)cc3)c2c1`: in data set [1], the half-life (in general, how long it takes for the measured level to halve) is over 2.89 h and the intrinsic clearance (microsomal CLint) (usually the rate of metabolic loss divided by the concentration) is under 10 µL/min/mg. For the same compound, in data set [1] (microsomes), the Remaining worked out at 98.893% and the “Remaining (without cofactor)” value was determined as 98.069%.

In data set [1], `CC(C)NC(=O)[C@H](Nc1ccc2c(c1)CNC2)c1cc(Cl)cc2[nH]ncc12` registered a half-life of over 2.89 h and a microsomal CLint of under 10 µL/min/mg. Further, in data set [1] (microsomes), the Remaining was 91.546% and the “Remaining (without cofactor)” value is 107.23%.

With `O=C(Nc1ccc2c(c1)CNC2)c1cc(Cl)cc2c1CCC2`, in data set [1], the half-life is over 2.89 h and the microsomal CLint was under 10 µL/min/mg. Moreover, in data set [1] (microsomes), the Remaining stood at 85.255% and the “Remaining (without cofactor)” value was 101.935%.

In data set [1], `O=C(Nc1ccc2c(c1)CNC2)c1cc(Br)cc2[nH]c(-c3ccccc3)nc12` registered a half-life of 2.18 h and an intrinsic metabolic clearance (microsomal CLint) of 12.8 µL/min/mg. For the same compound, in data set [1] (microsomes), the Remaining is listed as 80.427% and the “Remaining (without cofactor)” value is listed as 94.891%. Moreover, in data set [2], the half-life came to 0.636 h, the microsomal CLint was found to be 43.8 µL/min/mg, the Remaining was 49.173% and the “Remaining (without cofactor)” value is on record as 86.086%.

In data set [1], `C=CC[C@H](Nc1ccc(-c2nn[nH]n2)cc1)c1cc(Cl)cc(NC(=O)OCc2ccccc2)c1` had a half-life of 2.77 h and an intrinsic metabolic clearance (microsomal CLint) of 10.1 µL/min/mg. For the same compound, in data set [1] (microsomes), the Remaining is 84.591% and the “Remaining (without cofactor)” value turned out to be 100.465%.

In data set [1], `O=C(Nc1cc(Cl)cc([C@H]2CN(Cc3ccccc3)C[C@@H]2c2cccc(-c3nn[nH]n3)c2)c1)OCc1ccccc1` returned a half-life of 0.601 h and a microsomal CLint of 46.3 µL/min/mg. Besides, in data set [1] (microsomes), the Remaining is recorded as 46.707% and the “Remaining (without cofactor)” value is listed as 96.205%.

In data set [1], `Cn1ncc2c(C(=O)Nc3ccc4c(c3)CNC4)cc(Br)cc21` showed a half-life of over 2.89 h and an intrinsic clearance (microsomal CLint) of under 10 µL/min/mg. Moreover, in data set [1] (microsomes), the Remaining is 83.745% and the “Remaining (without cofactor)” value was found to be 108.267%.

`Cc1c(C(=O)Nc2cc([C@H]3CCOC3)ccn2)cc(C2CC2)n1C`: in data set [1], the half-life was determined as 0.482 h and the microsomal CLint worked out at 57.7 µL/min/mg. For the same compound, in data set [1] (microsomes), the Remaining was 39.342% and the “Remaining (without cofactor)” value was determined as 94.838%.

Take `CNC(=O)[C@H](Nc1ccc(-c2nnn[nH]2)cc1)c1cc(Cl)cc(C2CC2)c1`: in data set [1], the half-life is over 2.89 h and the microsomal CLint is under 10 µL/min/mg. In addition, in data set [1] (microsomes), the Remaining is listed as 90.289% and the “Remaining (without cofactor)” value was 100.18%.

In the case of `O=C(Nc1cc(Cl)cc([C@H](Nc2cccc(-c3nn[nH]n3)c2)C(=O)NCc2ccccc2)c1)OCc1ccccc1`, in data set [1], the half-life was over 2.89 h and the microsomal CLint was under 10 µL/min/mg. For the same compound, in data set [1] (microsomes), the Remaining was 93.548% and the “Remaining (without cofactor)” value was 99.519%.

For the compound `O=C(/C=C/c1ccccc1)C(=O)N1CCN(CCc2ccccc2)CC1`, in data set [1], the half-life was 0.167 h and the intrinsic clearance (microsomal CLint) is 167 µL/min/mg. In data set [1] (microsomes), the Remaining came to 6% and the “Remaining (without cofactor)” value is on record as 98%. Moreover, in data set [2], the half-life stood at 0.153 h, the microsomal CLint was 181 µL/min/mg, the Remaining is recorded as 5% and the “Remaining (without cofactor)” value is 96%.

`CCCC[C@@H](NC(=O)OC(C)(C)C)C(=O)N[C@@H](C(=O)NCc1ccc(CN)cc1)c1ccc(OCc2ccccc2)cc1`: in data set [1], the half-life amounted to 0.497 h and the microsomal CLint was found to be 56 µL/min/mg. In addition, in data set [1] (microsomes), the Remaining was found to be 40.588% and the “Remaining (without cofactor)” value is recorded as 99.499%. For the same compound, in data set [2], the half-life was 3.11 h, the microsomal CLint turned out to be 7.44 µL/min/mg, the Remaining was found to be 87.681% and the “Remaining (without cofactor)” value worked out at 94.521%.

Turning to `O=C(Nc1ccc2c(c1)CNC2)c1cc(Cl)cc2[nH]ncc12`, in data set [1], the half-life is over 2.89 h and the intrinsic metabolic clearance (microsomal CLint) was under 10 µL/min/mg. Besides, in data set [1] (microsomes), the Remaining was 87.652% and the “Remaining (without cofactor)” value is listed as 96.46%. In data set [2], the half-life was 0.115 h, the intrinsic metabolic clearance (microsomal CLint) came to 243 µL/min/mg, the Remaining is 1.932% and the “Remaining (without cofactor)” value is 102.129%.

As to `N#C[C@H](Nc1ccc2c(c1)CNC2)c1cc(Cl)cc2[nH]ncc12`, in data set [1], the half-life was 2.71 h and the microsomal CLint stood at 10.3 µL/min/mg. In data set [1] (microsomes), the Remaining stood at 84.178% and the “Remaining (without cofactor)” value is listed as 84.336%.

On to `NCc1cccc(NC(=O)[C@@H](NC(=O)OCc2ccccc2)c2ccc(OCc3ccccc3)cc2)c1`, for which, in data set [1], the half-life turned out to be 2.48 h and the microsomal CLint amounted to 11 µL/min/mg. In data set [1] (microsomes), the Remaining is on record as 87% and the “Remaining (without cofactor)” value is reported as 100%. Moreover, in data set [2], the half-life is 30 h, the intrinsic clearance (microsomal CLint) is 1 µL/min/mg, the Remaining was determined as 103% and the “Remaining (without cofactor)” value was 106%.

For the compound `NCc1cccc(NC(=O)C[C@H](NC(=O)OCc2ccccc2)c2ccc(OCc3ccccc3)c(Br)c2)c1`, in data set [1], the half-life stood at 2.25 h and the intrinsic metabolic clearance (microsomal CLint) came out at 12.4 µL/min/mg. Also, in data set [1] (microsomes), the Remaining is 79.862% and the “Remaining (without cofactor)” value came out at 98.099%. Moreover, in data set [2], the half-life is over 2.89 h, the intrinsic metabolic clearance (microsomal CLint) was under 10 µL/min/mg, the Remaining was 98.216% and the “Remaining (without cofactor)” value was determined as 98.077%.

`Cc1c(C(=O)Nc2cc(-c3cccnc3)ccn2)cc(C2CC2)n1C`: in data set [2], the half-life turned out to be 0.0717 h, the intrinsic metabolic clearance (microsomal CLint) worked out at 388 µL/min/mg, the Remaining turned out to be 0.854% and the “Remaining (without cofactor)” value is 95.554%.

In data set [1], `COc1cc(Cc2c(-c3ccc(F)cc3)noc2C)nc(N2CCNCC2)n1` registered a half-life of 1.8 h and a microsomal CLint of 15 µL/min/mg. In addition, in data set [1] (microsomes), the Remaining is reported as 82% and the “Remaining (without cofactor)” value amounted to 110%. In data set [2], the half-life worked out at 0.695 h, the intrinsic metabolic clearance (microsomal CLint) was 33 µL/min/mg, the Remaining was 52% and the “Remaining (without cofactor)” value turned out to be 101%.

Consider `O=C(Nc1cc(Cl)cc(-c2ccc3[nH]c(C(=O)O)cc3c2)c1)OCc1ccccc1`, for which, in data set [1], the half-life is over 2.89 h and the microsomal CLint was under 10 µL/min/mg. For the same compound, in data set [1] (microsomes), the Remaining was found to be 92.268% and the “Remaining (without cofactor)” value is 98.779%.

In the case of `NCc1cccc(CNC(=O)[C@@H](NC(=O)OCc2ccccc2)c2ccc(OCc3ccccc3)cc2)c1`, in data set [1], the half-life worked out at 7.17 h and the intrinsic clearance (microsomal CLint) came to 3.88 µL/min/mg. In addition, in data set [1] (microsomes), the Remaining was 94.901% and the “Remaining (without cofactor)” value was 89.996%. Moreover, in data set [2], the half-life stood at 8.46 h, the intrinsic metabolic clearance (microsomal CLint) was 2.73 µL/min/mg, the Remaining came to 103.125% and the “Remaining (without cofactor)” value was 96.808%.

In data set [1], `C=CC[C@H]1NCc2cc(NC(=O)c3cc(F)cc4[nH]ncc34)ccc21` came in with a half-life of over 2.89 h and an intrinsic clearance (microsomal CLint) of under 10 µL/min/mg. Also, in data set [1] (microsomes), the Remaining was determined as 97.296% and the “Remaining (without cofactor)” value is 93.037%.

In data set [1], `CNC(=O)c1cc(Cl)ccc1NS(=O)(=O)c1ccc(Oc2ccccc2Cl)cc1` had a half-life of 0.263 h and an intrinsic metabolic clearance (microsomal CLint) of 106 µL/min/mg. For the same compound, in data set [1] (microsomes), the Remaining amounted to 18% and the “Remaining (without cofactor)” value is listed as 94%. Moreover, in data set [2], the half-life came to 0.247 h, the microsomal CLint amounted to 94 µL/min/mg, the Remaining was 16% and the “Remaining (without cofactor)” value turned out to be 99%.

In data set [1], `CNC(=O)[C@H](Nc1cc(CN)cc(C(=O)O)c1)c1cc(Cl)cc(C2CC2)c1` came in with a half-life of over 2.89 h and an intrinsic clearance (microsomal CLint) of under 10 µL/min/mg. In addition, in data set [1] (microsomes), the Remaining came out at 98.4% and the “Remaining (without cofactor)” value is on record as 103.999%.

As to `OCC#C[C@H](Nc1ccc2c(c1)CNC2)c1cc(Cl)cc2[nH]ncc12`, in data set [1], the half-life was over 2.89 h and the intrinsic metabolic clearance (microsomal CLint) is under 10 µL/min/mg. In data set [1] (microsomes), the Remaining was 89.541% and the “Remaining (without cofactor)” value turned out to be 103.012%.

For `O=C1Cc2cc(C(=O)Nc3ccc4c(c3)CNC4)ccc2N1`, in data set [2], the half-life was over 2.89 h, the microsomal CLint is under 10 µL/min/mg, the Remaining is recorded as 102.985% and the “Remaining (without cofactor)” value turned out to be 100.305%.

In data set [1], `CNC(=O)c1cc(Cl)c(F)cc1NS(=O)(=O)c1ccc(Oc2ccccc2Cl)cc1` came in with a half-life of 0.39 h and an intrinsic metabolic clearance (microsomal CLint) of 71.3 µL/min/mg. Moreover, in data set [1] (microsomes), the Remaining was found to be 32.8% and the “Remaining (without cofactor)” value came out at 112.27%. Moreover, in data set [2], the half-life turned out to be 0.506 h, the microsomal CLint was determined as 45.6 µL/min/mg, the Remaining was determined as 39.045% and the “Remaining (without cofactor)” value amounted to 100.041%.

Turning to `NCc1cc(Cl)cc(C(=O)Nc2ccc3c(c2)CNC3)c1`, in data set [1] (microsomes), the Remaining came out at 0%, the “Remaining (without cofactor)” value is given as 109.308% and the T1/2 entry is on record as “Half-life could not be determined”.

For `O=C(O)c1cc(Cl)ccc1NS(=O)(=O)c1ccc(Oc2ccccc2Cl)cc1`, in data set [1], the half-life turned out to be 0.18 h and the intrinsic metabolic clearance (microsomal CLint) was found to be 155 µL/min/mg. Moreover, in data set [1] (microsomes), the Remaining is reported as 8.181% and the “Remaining (without cofactor)” value stood at 110.535%. Moreover, in data set [2], the half-life amounted to 1.82 h, the intrinsic metabolic clearance (microsomal CLint) stood at 13 µL/min/mg, the Remaining was 79.49% and the “Remaining (without cofactor)” value is 100.358%.

With `CNC(=O)[C@H](Nc1cc(CN)cc(-c2nn[nH]n2)c1)c1cc(Cl)cc(C2CC2)c1`, in data set [1], the half-life is over 2.89 h and the microsomal CLint was under 10 µL/min/mg. For the same compound, in data set [1] (microsomes), the Remaining is 95.463% and the “Remaining (without cofactor)” value is 101.856%.
